Assay results reported in patent US10450311B2, “Pesticidally active heterocyclic derivatives with sulphur containing substituents” (Syngenta Participations AG, priority 2014, dated 2019).

What was measured:
Format in all cases: in vivo
[1] = system: Myzus persicae (Green Peach Aphid); assay: Activity against Myzus persicae, sprayed sunflower leaf discs; conditions: foliar, 144 h, application rate of 200 ppm, aphid population of mixed ages on sunflower leaf discs, 6 days after infestation
Protocol: Example B5: Activity Against Myzus persicae (Green Peach Aphid)
Sunflower leaf discs were placed on agar in a 24-well microtiter plate and sprayed with aqueous test solutions prepared from 10′000 ppm DMSO stock solutions. After drying, the leaf discs were infested with an aphid population of mixed ages. The samples were assessed for mortality 6 days after infestation.

[2] = system: Spodoptera littoralis (Egyptian Cotton Leaf Worm); assay: Activity against Spodoptera littoralis, sprayed cotton leaf discs; conditions: foliar, 72 h, application rate of 200 ppm, L1 larvae on cotton leaf discs, 3 days after infestation, read-out: control (at least one of mortality, anti-feedant effect, growth inhibition)
Protocol: Example B9: Activity Against Spodoptera littoralis (Egyptian Cotton Leaf Worm)
Cotton leaf discs were placed on agar in 24-well microtiter plates and sprayed with aqueous test solutions prepared from 10′000 ppm DMSO stock solutions. After drying the leaf discs were infested with five L1 larvae. The samples were assessed for mortality, anti-feedant effect, and growth inhibition in comparison to untreated samples 3 days after infestation. Control of Spodoptera littoralis by a test sample is when at least one of mortality, anti-feedant effect, and growth inhibition is higher than the untreated sample.

[3] = system: Diabrotica balteata (Corn Root Worm); assay: Activity against Diabrotica balteata, sprayed maize sprouts; conditions: 96 h, application rate of 200 ppm, larvae on maize sprouts, 4 days after infestation
Protocol: Example B2: Activity Against Diabrotica balteata (Corn Root Worm)
Maize sprouts, placed on an agar layer in 24-well microtiter plates were treated with aqueous test solutions prepared from 10′000 ppm DMSO stock solutions by spraying. After drying, the plates were infested with […] (6 to 10 per well). The samples were assessed for mortality 4 days after infestation.

[4] = system: Spodoptera littoralis (Egyptian Cotton Leaf Worm); assay: Activity against Spodoptera littoralis, systemic activity; conditions: 144 h, test rate of 12.5 ppm, in agar, lettuce root uptake, 6 days after infestation
Excerpt: Example B11: Activity Against Spodoptera littoralis (Egyptian Cotton Leaf Worm), Systemic Activity
(§1) Test compounds were applied by pipette from 10′000 ppm DMSO stock solutions into 24-well plates and mixed with agar. Lettuce seeds were placed on the agar and the multi well plate was closed by another plate which contains also agar. After 7 days the roots have absorbed the compound and the lettuce has grown into the lid plate. The lettuce leafs were now cut off into the lid plate. Spodoptera eggs were pipetted through a plastic stencil on a humid gel blotting paper and the plate closed with it. The samples were assessed for mortality 6 days after infestation.

[5] = system: Spodoptera littoralis (Egyptian Cotton Leaf Worm); assay: Activity against Spodoptera littoralis, compound in agar taken up by lettuce; conditions: 144 h, test rate of 12.5 ppm, lettuce root uptake, 6 days after infestation, read-out: effect in at least one of the three categories (mortality, anti-feedancy, or growth inhibition)
Excerpt: Example B10: Activity Against Spodoptera littoralis (Egyptian Cotton Leaf Worm)
as §1, with “mortality, anti-feedant effect and growth inhibition in comparison to untreated samples” for “mortality”

[6] = system: Euschistus heros (Neotropical Brown Stink Bug); assay: Activity against Euschistus heros, sprayed soybean leaf; conditions: 120 h, application rate of 200 ppm, N-2 nymphs on soybean leaf, 5 days after infestation
Protocol: Example B3: Activity Against Euschistus heros (Neotropical Brown Stink Bug)
Soybean leaf on agar in 24-well microtiter plates were sprayed with aqueous test solutions prepared from 10′000 ppm DMSO stock solutions. After drying the leaf were infested with N-2 nymphs. The samples were assessed for mortality 5 days after infestation.

[7] = system: Plutella xylostella (Diamond Back Moth); assay: Activity against Plutella xylostella, treated artificial diet; conditions: 120 h, application rate of 200 ppm, L2 larvae on artificial diet, 5 days after infestation, read-out: effect in at least one of the two categories (mortality or growth inhibition)
Protocol: Example B8: Activity Against Plutella xylostella (Diamond Back Moth)
24-well microtiter plates with artificial diet were treated with aqueous test solutions prepared from 10′000 ppm DMSO stock solutions by pipetting. After drying, the plates were infested with L2 larvae (10 to 15 per well). The samples were assessed for mortality and growth inhibition in comparison to untreated samples 5 days after infestation.

[8] = system: Aedes aegypti (Yellow Fever Mosquito); assay: whole plant or invertebrate; conditions: 48 h, test rate of 5 ppm, L2 larvae in 96-well plates, incubation period of 2 days, read-out: effect in at least one of the two categories (mortality or growth inhibition)
Protocol: Example B14: Activity Against Aedes aegypti (Yellow Fever Mosquito)
10 to 15 Aedes larvae (L2) together with a nutrition mixture were placed in 96-well microtiter plates. Test compounds were pipetted into the wells. After an incubation period of 2 days insects were assessed for mortality and growth inhibition.

CCS(=O)(=O)c1cc(Br)cnc1-c1nc2cc(C(F)(F)F)n(C)c(=O)c2n1C [Compound A21, 2-[5-bromo-3-ethylsulfonyl-2-pyridyl]-3,5-dimethyl-6-(trifluoromethyl)imidazo[4,5-c]pyridin-4-one]
≥ 80%: mortality at 200 ppm [1] | percent control (mortality, anti-feedant effect or growth inhibition) at 200 ppm [2] | mortality at 200 ppm [3] | mortality at 12.5 ppm [4] | percent control (mortality, anti-feedancy or growth inhibition) at 12.5 ppm [5] | mortality at 200 ppm [6] | percent effect (mortality or growth inhibition) at 200 ppm [7]

CCS(=O)(=O)c1cc(-c2ccc(C(F)(F)F)cc2)cnc1-c1nc2cc(C(F)(F)F)n(C)c(=O)c2n1C [Compound A22, 2-[3-ethylsulfonyl-5-[4-(trifluoromethyl)phenyl]-2-pyridyl]-3,5-dimethyl-6-(trifluoromethyl)imidazo[4,5-c]pyridin-4-one]
≥ 80%: percent effect (mortality or growth inhibition) at 5 ppm [8] | mortality at 200 ppm [1] | percent control (mortality, anti-feedant effect or growth inhibition) at 200 ppm [2] | mortality at 200 ppm [3] | mortality at 12.5 ppm [4] | percent control (mortality, anti-feedancy or growth inhibition) at 12.5 ppm [5] | mortality at 200 ppm [6] | percent effect (mortality or growth inhibition) at 200 ppm [7]

CCSc1cc(-n2cc(C(F)(F)F)cn2)cnc1-c1nc2cc(C(F)(F)F)n(C)c(=O)c2n1C [Compound A24, 2-[3-ethylsulfanyl-5-[4-(trifluoromethyl)pyrazol-1-yl]-2-pyridyl]-3,5-dimethyl-6-(trifluoromethyl)imidazo[4,5-c]pyridin-4-one]
≥ 80%: percent control (mortality, anti-feedancy or growth inhibition) at 12.5 ppm [5]

CCSc1cc(-n2ccc(C(F)(F)F)n2)cnc1-c1nc2cc(C(F)(F)F)n(C)c(=O)c2n1C [Compound A26, 2-[3-ethylsulfanyl-5-[3-(trifluoromethyl)pyrazol-1-yl]-2-pyridyl]-3,5-dimethyl-6-(trifluoromethyl)imidazo[4,5-c]pyridin-4-one]
≥ 80%: percent control (mortality, anti-feedant effect or growth inhibition) at 200 ppm [2]

CCS(=O)(=O)c1cc(-n2ccc(C(F)(F)F)n2)cnc1-c1nc2cc(C(F)(F)F)n(C)c(=O)c2n1C [Compound A27]
≥ 80%: percent control (mortality, anti-feedant effect or growth inhibition) at 200 ppm [2]

CCS(=O)(=O)c1cc(-c2cc(F)cc(F)c2)cnc1-c1nc2cc(C(F)(F)F)n(C)c(=O)c2n1C [Compound A28, 2-[5-(3,5-difluorophenyl)-3-ethylsulfonyl-2-pyridyl]-3,5-dimethyl-6-(trifluoromethyl)imidazo[4,5-c]pyridin-4-one]
≥ 80%: percent effect (mortality or growth inhibition) at 5 ppm [8] | percent control (mortality, anti-feedant effect or growth inhibition) at 200 ppm [2] | mortality at 200 ppm [3] | mortality at 12.5 ppm [4] | percent control (mortality, anti-feedancy or growth inhibition) at 12.5 ppm [5] | mortality at 200 ppm [6] | percent effect (mortality or growth inhibition) at 200 ppm [7]

CCS(=O)(=O)c1cc(-c2ccc(C#N)cc2)cnc1-c1nc2cc(C(F)(F)F)n(C)c(=O)c2n1C [Compound A41, 4-[6-[3,5-dimethyl-4-OXO-6-(trifluoromethyl)imidazo[4,5-c]pyridin-2-yl]-5-ethylsulfonyl-3-pyridyl]benzonitrile]
≥ 80%: percent effect (mortality or growth inhibition) at 5 ppm [8] | mortality at 200 ppm [1] | percent control (mortality, anti-feedant effect or growth inhibition) at 200 ppm [2] | mortality at 200 ppm [3] | mortality at 12.5 ppm [4] | percent control (mortality, anti-feedancy or growth inhibition) at 12.5 ppm [5] | mortality at 200 ppm [6] | percent effect (mortality or growth inhibition) at 200 ppm [7]

CCS(=O)(=O)c1cc(-c2cc(C(F)(F)F)ccn2)cnc1-c1nc2cc(C(F)(F)F)n(C)c(=O)c2n1C [Compound A42]
≥ 80%: percent effect (mortality or growth inhibition) at 5 ppm [8] | mortality at 200 ppm [1] | percent control (mortality, anti-feedant effect or growth inhibition) at 200 ppm [2] | mortality at 200 ppm [3] | mortality at 12.5 ppm [4] | percent control (mortality, anti-feedancy or growth inhibition) at 12.5 ppm [5] | mortality at 200 ppm [6] | percent effect (mortality or growth inhibition) at 200 ppm [7]

CCS(=O)(=O)c1cc(-c2ccc(C(F)(F)F)cc2)ccc1-c1nc2cc(C(F)(F)F)n(C)c(=O)c2n1C [Compound A70, 2-[2-ethylsulfonyl-4-[4-(trifluoromethyl)phenyl]phenyl]-3,5-dimethyl-6-(trifluoromethyl)imidazo[4,5-c]pyridin-4-one]
≥ 80%: percent effect (mortality or growth inhibition) at 5 ppm [8] | percent control (mortality, anti-feedant effect or growth inhibition) at 200 ppm [2] | mortality at 200 ppm [3] | mortality at 200 ppm [6] | percent effect (mortality or growth inhibition) at 200 ppm [7]

CCS(=O)(=O)c1cc(-c2ncccn2)ccc1-c1nc2cc(C(F)(F)F)n(C)c(=O)c2n1C [Compound A71, 2-(2-ethylsulfonyl-4-pyrimidin-2-yl-phenyl)-3,5-dimethyl-6-(trifluoromethyl)imidazo[4,5-c]pyridin-4-one]
≥ 80%: mortality at 200 ppm [1] | percent control (mortality, anti-feedant effect or growth inhibition) at 200 ppm [2] | mortality at 200 ppm [6] | percent effect (mortality or growth inhibition) at 200 ppm [7]

CCS(=O)(=O)c1cc(-c2ccc(Cl)cc2)ccc1-c1nc2cc(C(F)(F)F)n(C)c(=O)c2n1C [Compound A72, 2-[4-(4-chlorophenyl)-2-ethylsulfonyl-phenyl]-3,5-dimethyl-6-(trifluoromethyl)imidazo[4,5-c]pyridin-4-one]
≥ 80%: percent control (mortality, anti-feedant effect or growth inhibition) at 200 ppm [2] | mortality at 200 ppm [3] | mortality at 200 ppm [6] | percent effect (mortality or growth inhibition) at 200 ppm [7]

CCS(=O)(=O)c1cc(-c2ccc(C(F)(F)F)cc2)cnc1-c1nc2cc(Br)c(=O)n(C)c2n1C [Compound B3]
≥ 80%: mortality at 200 ppm [1] | percent control (mortality, anti-feedant effect or growth inhibition) at 200 ppm [2] | mortality at 200 ppm [3] | mortality at 200 ppm [6] | percent effect (mortality or growth inhibition) at 200 ppm [7]

CCSc1cc(-c2ccc(C(F)(F)F)cc2)cnc1-c1nc2cc(C(F)(F)F)c(=O)n(C)c2n1C [Compound B5, 2-[3-ethylsulfanyl-5-[4-(trifluoromethyl)phenyl]-2-pyridyl]-3,4-dimethyl-6-(trifluoromethyl)imidazo[4,5-b]pyridin-5-one]
≥ 80%: percent control (mortality, anti-feedant effect or growth inhibition) at 200 ppm [2] | mortality at 200 ppm [3] | mortality at 200 ppm [6]
